Test results as given in the kinase profiling compilation of Christmann-Franck et al. (2016).
Where “and” joins values, the source holds several entries; their conditions need not be identical. Identical values can stand only once.

How the values were obtained:
Assay in all cases: radiometric filter-binding kinase assay, Kinase HotSpot
Details in all cases: compound 0.5 µM; ATP 10 µM
PAK6 (human) = PAK6 (human) (UniProt Q9NQU5)
CSNK1G2 (human) = CSNK1G2 (human) (UniProt P78368)
TBK1 (human) = TBK1 (human) (UniProt Q9UHD2)
NEK11 (human) = NEK11 (human) (UniProt Q8NG66)
NEK9 (human) = NEK9 (human) (UniProt Q8TD19)
CAMK1D (human) = CAMK1D (human) (UniProt Q8IU85)
LTK (human) = LTK (human) (UniProt P29376)
CSNK2A1 (human) = CSNK2A1 (human) (UniProt P68400)
GRK6 (human) = GRK6 (human) (UniProt P43250)
EPHA2 (human) = EPHA2 (human) (UniProt P29317)
TGFBR1 (human) = TGFBR1 (human) (UniProt P36897)
MST1R (human) = MST1R (human) (UniProt Q04912)
PRKG2 (human) = PRKG2 (human) (UniProt Q13237)
[1] = biological target: TYK2 JH1 catalytic (human) (UniProt P29597)
SLK (human) = SLK (human) (UniProt Q9H2G2)
PIM3 (human) = PIM3 (human) (UniProt Q86V86)
ULK2 (human) = ULK2 (human) (UniProt Q8IYT8)
TAOK3 (human) = TAOK3 (human) (UniProt Q9H2K8)
DYRK4 (human) = DYRK4 (human) (UniProt Q9NR20)
LIMK1 (human) = LIMK1 (human) (UniProt P53667)
PRKCA (human) = PRKCA (human) (UniProt P17252)
SYK (human) = SYK (human) (UniProt P43405)
MAPK14 (human) = MAPK14 (human) (UniProt Q16539)
SGK2 (human) = SGK2 (human) (UniProt Q9HBY8)
CAMKK2 (human) = CAMKK2 (human) (UniProt Q96RR4)
ROS1 (human) = ROS1 (human) (UniProt P08922)
PDGFRB (human) = PDGFRB (human) (UniProt P09619)
NEK1 (human) = NEK1 (human) (UniProt Q96PY6)
CSNK1D (human) = CSNK1D (human) (UniProt P48730)
SRMS (human) = SRMS (human) (UniProt Q9H3Y6)
CAMK1G (human) = CAMK1G (human) (UniProt Q96NX5)
MAPK11 (human) = MAPK11 (human) (UniProt Q15759)
FGFR3 (human) = FGFR3 (human) (UniProt P22607)
HIPK1 (human) = HIPK1 (human) (UniProt Q86Z02)
RPS6KA6 KD1 KD2 (human) = RPS6KA6 KD1 KD2 (human) (UniProt Q9UK32)
PRKCH (human) = PRKCH (human) (UniProt P24723)
ROCK2 (human) = ROCK2 (human) (UniProt O75116)
CAMKK1 (human) = CAMKK1 (human) (UniProt Q8N5S9)
PLK1 (human) = PLK1 (human) (UniProt P53350)
PAK3 (human) = PAK3 (human) (UniProt O75914)
RPS6KB1 (human) = RPS6KB1 (human) (UniProt P23443)
LYN (human) = LYN (human) (UniProt P07948)

Chain of GRK6 (human) (P43250 whole entry, looked up): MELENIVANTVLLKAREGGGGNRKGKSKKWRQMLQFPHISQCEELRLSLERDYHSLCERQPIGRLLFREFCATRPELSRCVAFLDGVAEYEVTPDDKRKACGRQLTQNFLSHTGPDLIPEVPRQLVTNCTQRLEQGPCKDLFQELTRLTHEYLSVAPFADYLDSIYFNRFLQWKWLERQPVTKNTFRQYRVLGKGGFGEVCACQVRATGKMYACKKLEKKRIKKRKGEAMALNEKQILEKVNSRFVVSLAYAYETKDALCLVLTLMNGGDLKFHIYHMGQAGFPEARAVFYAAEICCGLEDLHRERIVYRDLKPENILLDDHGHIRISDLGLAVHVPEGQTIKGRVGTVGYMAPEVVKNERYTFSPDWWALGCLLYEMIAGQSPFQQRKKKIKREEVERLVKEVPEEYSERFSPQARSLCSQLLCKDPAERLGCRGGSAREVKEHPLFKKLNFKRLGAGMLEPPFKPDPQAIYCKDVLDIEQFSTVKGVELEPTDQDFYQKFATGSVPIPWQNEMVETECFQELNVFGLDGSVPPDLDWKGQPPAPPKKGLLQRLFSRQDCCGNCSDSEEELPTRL
Chain of CSNK2A1 (human) (P68400 whole entry, looked up): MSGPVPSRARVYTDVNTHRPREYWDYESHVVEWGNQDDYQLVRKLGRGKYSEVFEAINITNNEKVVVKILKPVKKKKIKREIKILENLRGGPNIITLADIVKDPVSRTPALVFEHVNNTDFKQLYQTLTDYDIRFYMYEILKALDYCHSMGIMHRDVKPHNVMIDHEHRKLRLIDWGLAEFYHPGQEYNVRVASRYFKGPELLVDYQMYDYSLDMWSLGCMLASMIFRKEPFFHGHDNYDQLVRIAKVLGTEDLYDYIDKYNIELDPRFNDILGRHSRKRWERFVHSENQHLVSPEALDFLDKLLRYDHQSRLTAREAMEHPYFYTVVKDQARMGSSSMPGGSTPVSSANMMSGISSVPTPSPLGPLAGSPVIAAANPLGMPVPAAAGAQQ
Chain of NEK1 (human) (Q96PY6 whole entry, looked up): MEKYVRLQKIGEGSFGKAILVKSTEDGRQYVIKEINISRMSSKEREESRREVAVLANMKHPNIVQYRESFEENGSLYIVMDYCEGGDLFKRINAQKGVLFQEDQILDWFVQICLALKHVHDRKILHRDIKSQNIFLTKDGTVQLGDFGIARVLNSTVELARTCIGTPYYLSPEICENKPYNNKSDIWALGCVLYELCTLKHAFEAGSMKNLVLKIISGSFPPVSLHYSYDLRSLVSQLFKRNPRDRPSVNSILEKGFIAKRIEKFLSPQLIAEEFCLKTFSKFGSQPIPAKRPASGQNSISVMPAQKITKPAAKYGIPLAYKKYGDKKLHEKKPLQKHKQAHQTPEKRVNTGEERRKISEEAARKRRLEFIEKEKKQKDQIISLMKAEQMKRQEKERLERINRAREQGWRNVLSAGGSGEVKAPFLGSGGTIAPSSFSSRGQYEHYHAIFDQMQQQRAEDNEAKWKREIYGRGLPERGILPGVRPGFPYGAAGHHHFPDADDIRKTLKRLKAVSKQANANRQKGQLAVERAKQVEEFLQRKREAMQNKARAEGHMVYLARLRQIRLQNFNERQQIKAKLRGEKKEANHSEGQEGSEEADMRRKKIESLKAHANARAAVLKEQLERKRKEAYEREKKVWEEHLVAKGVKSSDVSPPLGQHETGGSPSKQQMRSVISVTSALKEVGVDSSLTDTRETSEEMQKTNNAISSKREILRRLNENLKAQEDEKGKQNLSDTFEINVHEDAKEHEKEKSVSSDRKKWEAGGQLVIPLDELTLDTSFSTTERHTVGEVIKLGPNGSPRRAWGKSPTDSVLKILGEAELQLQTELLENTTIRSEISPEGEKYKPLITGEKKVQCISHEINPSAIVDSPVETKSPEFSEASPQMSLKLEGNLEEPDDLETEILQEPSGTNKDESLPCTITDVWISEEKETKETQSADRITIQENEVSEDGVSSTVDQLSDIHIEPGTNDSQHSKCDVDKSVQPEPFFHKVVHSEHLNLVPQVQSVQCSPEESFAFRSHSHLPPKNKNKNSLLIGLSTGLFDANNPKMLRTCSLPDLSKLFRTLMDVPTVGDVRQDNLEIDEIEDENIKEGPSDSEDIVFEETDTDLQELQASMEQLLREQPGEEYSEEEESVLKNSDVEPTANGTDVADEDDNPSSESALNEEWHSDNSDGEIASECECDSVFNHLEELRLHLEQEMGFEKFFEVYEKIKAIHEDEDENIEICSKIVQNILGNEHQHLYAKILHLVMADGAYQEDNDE
Chain of TYK2 JH1 catalytic (human) (P29597 whole entry, looked up): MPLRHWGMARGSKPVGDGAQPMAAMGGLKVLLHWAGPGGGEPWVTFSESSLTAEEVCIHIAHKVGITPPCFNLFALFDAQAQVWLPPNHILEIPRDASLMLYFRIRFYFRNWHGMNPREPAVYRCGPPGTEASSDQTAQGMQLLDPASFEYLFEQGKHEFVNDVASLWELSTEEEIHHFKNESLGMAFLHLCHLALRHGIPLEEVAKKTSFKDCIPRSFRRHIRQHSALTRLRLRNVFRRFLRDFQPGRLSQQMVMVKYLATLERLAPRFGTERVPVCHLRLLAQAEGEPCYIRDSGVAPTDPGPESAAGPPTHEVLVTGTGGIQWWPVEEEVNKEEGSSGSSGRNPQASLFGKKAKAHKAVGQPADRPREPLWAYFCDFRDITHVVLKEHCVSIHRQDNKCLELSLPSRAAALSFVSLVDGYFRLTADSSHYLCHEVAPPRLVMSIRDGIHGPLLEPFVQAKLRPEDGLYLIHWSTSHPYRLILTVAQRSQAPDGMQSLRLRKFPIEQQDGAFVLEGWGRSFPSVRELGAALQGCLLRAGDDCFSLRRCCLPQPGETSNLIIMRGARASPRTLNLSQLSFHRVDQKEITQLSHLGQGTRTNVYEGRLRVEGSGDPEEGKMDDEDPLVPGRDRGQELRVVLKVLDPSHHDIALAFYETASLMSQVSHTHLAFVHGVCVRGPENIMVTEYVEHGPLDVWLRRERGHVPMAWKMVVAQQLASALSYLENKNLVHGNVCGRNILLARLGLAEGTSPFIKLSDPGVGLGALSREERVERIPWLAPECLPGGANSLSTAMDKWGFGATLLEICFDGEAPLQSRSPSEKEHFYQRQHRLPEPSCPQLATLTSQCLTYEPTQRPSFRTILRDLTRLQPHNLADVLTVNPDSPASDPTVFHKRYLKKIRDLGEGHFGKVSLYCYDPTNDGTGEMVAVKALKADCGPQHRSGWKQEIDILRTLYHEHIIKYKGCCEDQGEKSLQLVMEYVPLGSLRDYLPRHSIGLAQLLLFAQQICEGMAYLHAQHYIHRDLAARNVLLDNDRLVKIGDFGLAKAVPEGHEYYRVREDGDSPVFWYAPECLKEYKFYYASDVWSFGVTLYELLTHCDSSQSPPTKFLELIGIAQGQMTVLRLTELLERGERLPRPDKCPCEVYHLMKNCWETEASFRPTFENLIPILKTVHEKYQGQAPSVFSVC
Chain of SRMS (human) (Q9H3Y6 whole entry, looked up): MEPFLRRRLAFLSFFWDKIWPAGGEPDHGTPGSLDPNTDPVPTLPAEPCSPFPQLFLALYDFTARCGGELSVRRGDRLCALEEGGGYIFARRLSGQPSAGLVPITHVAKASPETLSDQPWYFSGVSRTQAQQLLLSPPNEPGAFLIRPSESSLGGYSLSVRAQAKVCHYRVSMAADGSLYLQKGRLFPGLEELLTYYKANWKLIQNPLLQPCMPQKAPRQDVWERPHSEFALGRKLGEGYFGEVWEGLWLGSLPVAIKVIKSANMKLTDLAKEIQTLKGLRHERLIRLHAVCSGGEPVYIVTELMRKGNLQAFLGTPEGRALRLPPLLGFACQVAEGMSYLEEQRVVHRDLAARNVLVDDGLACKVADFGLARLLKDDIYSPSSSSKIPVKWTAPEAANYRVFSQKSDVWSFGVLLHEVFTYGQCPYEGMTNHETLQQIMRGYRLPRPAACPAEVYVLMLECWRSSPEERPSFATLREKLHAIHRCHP
Chain of SGK2 (human) (Q9HBY8 whole entry, looked up): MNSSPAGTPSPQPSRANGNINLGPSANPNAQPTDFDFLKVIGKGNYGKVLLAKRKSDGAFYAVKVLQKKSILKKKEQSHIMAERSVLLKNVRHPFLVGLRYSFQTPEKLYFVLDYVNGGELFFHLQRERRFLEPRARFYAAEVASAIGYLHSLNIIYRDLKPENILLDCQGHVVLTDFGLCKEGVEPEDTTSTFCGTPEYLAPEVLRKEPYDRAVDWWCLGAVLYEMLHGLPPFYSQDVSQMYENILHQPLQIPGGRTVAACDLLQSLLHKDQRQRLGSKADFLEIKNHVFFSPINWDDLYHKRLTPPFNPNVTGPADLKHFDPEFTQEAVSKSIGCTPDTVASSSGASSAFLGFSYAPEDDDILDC

`O=C1NC(=O)c2c1c1c3ccccc3n3c1c1c2c2ccccc2n1C1CCC3O1` showed a residual activity (PAK6 (human)) of 85.4%, a residual activity (CSNK1G2 (human)) of 81.8% and a residual activity (TBK1 (human)) of 7.4%. It also gave a residual activity (NEK11 (human)) of 60.6%, a residual activity (NEK9 (human)) of 23.4% and a residual activity (CAMK1D (human)) of 33.6%. It also gave a residual activity (LTK (human)) of 21.8%, a residual activity (CSNK2A1 (human)) of 16.7% and a residual activity (GRK6 (human)) of 55.6%. It also gave a residual activity (EPHA2 (human)) of 91.3%, a residual activity (TGFBR1 (human)) of 110% and a residual activity (MST1R (human)) of 87.7%. It also gave a residual activity (PRKG2 (human)) of 6.01%, a residual activity [1] of 4.32% and a residual activity (SLK (human)) of 26%. It also gave a residual activity (PIM3 (human)) of 0.238%, a residual activity (ULK2 (human)) of 89.1% and a residual activity (TAOK3 (human)) of 24.5%. It also gave a residual activity (DYRK4 (human)) of 87.8%, a residual activity (LIMK1 (human)) of 49.3% and a residual activity (PRKCA (human)) of 13.9%. For the same compound, the residual activity (SYK (human)) was 15.8%, the residual activity (MAPK14 (human)) was 102% and the residual activity (SGK2 (human)) was 18.6%. The residual activity (CAMKK2 (human)) was 7.93%, the residual activity (ROS1 (human)) was 1.6% and the residual activity (PDGFRB (human)) was 19.1%. The residual activity (NEK1 (human)) was 50.9%, the residual activity (CSNK1D (human)) was 93.8% and the residual activity (SRMS (human)) was 105%. The residual activity (CAMK1G (human)) was 56.5%, the residual activity (MAPK11 (human)) was 108% and the residual activity (FGFR3 (human)) was 36.3%. For the same compound, the residual activity (HIPK1 (human)) was 93.6%, the residual activity (RPS6KA6 KD1 KD2 (human)) was 1.08% and the residual activity (PRKCH (human)) was 47.6%. For the same compound, the residual activity (ROCK2 (human)) was 73.7%, the residual activity (CAMKK1 (human)) was 27.2% and the residual activity (PLK1 (human)) was 50.2%. The residual activity (PAK3 (human)) was 41.7% and the residual activity (RPS6KB1 (human)) was 2.38%.
`Nc1ncnc2[nH]nc(Nc3ccc(F)cc3)c12` showed a residual activity (PAK6 (human)) of 109%, a residual activity (CSNK1G2 (human)) of 95.7% and a residual activity (TBK1 (human)) of 99.6%. The residual activity (NEK11 (human)) was 102%, the residual activity (NEK9 (human)) was 97.9% and the residual activity (CAMK1D (human)) was 130%. For the same compound, the residual activity (LTK (human)) was 92.5%, the residual activity (CSNK2A1 (human)) was 89.9% and the residual activity (GRK6 (human)) was 103%. For the same compound, the residual activity (EPHA2 (human)) was 89.9%, the residual activity (MST1R (human)) was 93.7% and the residual activity (PRKG2 (human)) was 97%. For the same compound, the residual activity [1] was 92.3%, the residual activity (SLK (human)) was 99.5% and the residual activity (PIM3 (human)) was 95%. For the same compound, the residual activity (ULK2 (human)) was 110%, the residual activity (TAOK3 (human)) was 92.4% and the residual activity (DYRK4 (human)) was 104%. The residual activity (LIMK1 (human)) was 95.2%, the residual activity (PRKCA (human)) was 98% and the residual activity (SYK (human)) was 97.4%. For the same compound, the residual activity (MAPK14 (human)) was 79.5%, the residual activity (SGK2 (human)) was 96.5% and the residual activity (CAMKK2 (human)) was 83.6%. It also gave a residual activity (ROS1 (human)) of 99.9%, a residual activity (PDGFRB (human)) of 98% and a residual activity (NEK1 (human)) of 94%. For the same compound, the residual activity (CSNK1D (human)) was 67.7%, the residual activity (SRMS (human)) was 104% and the residual activity (CAMK1G (human)) was 97.2%. The residual activity (MAPK11 (human)) was 108%, the residual activity (FGFR3 (human)) was 101% and the residual activity (HIPK1 (human)) was 106%. The residual activity (LYN (human)) was 89.7% and 90.3%, the residual activity (RPS6KA6 KD1 KD2 (human)) was 71.7% and the residual activity (PRKCH (human)) was 84.7%. The residual activity (ROCK2 (human)) was 92.1%, the residual activity (CAMKK1 (human)) was 101% and the residual activity (PLK1 (human)) was 99.9%. For the same compound, the residual activity (PAK3 (human)) was 104% and the residual activity (RPS6KB1 (human)) was 94.3%.
